# Key:
# human LMPTP-A [1] = target: T1, human LMPTP-A (Homo sapiens, UniProt P24666)
# T1 sequence (P24666 1-158): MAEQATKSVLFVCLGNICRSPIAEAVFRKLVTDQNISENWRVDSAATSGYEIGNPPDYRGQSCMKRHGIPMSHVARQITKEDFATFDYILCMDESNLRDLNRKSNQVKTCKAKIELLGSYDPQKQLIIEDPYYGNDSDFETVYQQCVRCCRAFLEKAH
# Mouse pharmacokinetics = conditions: in vivo, iv, 2 mg/kg
# human LMPTP-A [2] = target: T1, human LMPTP-A; test: LMPTP biochemical inhibition assay; conditions: for LMPTP potency, in words (Table 3 series): substitution of the benzyl substituent off the 3-position
# HepG2 hepatocytes = test: Insulin-stimulated AKT Thr308 phosphorylation in HepG2 hepatocytes; type: cell-based, human; conditions: 500 nM overnight, 10 nM insulin 5 min
# diabetic DIO mice = test: DIO diabetes model; type: in vivo, mouse; conditions: 2 weeks
# VHR = conditions: HTS workflow; cited from earlier work
# LYP = conditions: HTS workflow; cited from earlier work
# [3] = system: panel of PTPs (class I tyrosine-specific and dual-specific PTPs); conditions: 40 μM compound; no other PTP tested
# [4] = 0.03% in HFD chow, 10 min after IP insulin
structure (smiles),measurement,setting,value
Cc1ccccc1-c1nc2c(N)ncn(Cc3c(Cl)cccc3Cl)c-2n1 [5d],mechanism of LMPTP inhibition,human LMPTP-A [1],uncompetitive
same,potency at varying substrate concentrations,"human LMPTP-A [1]; 20 nM human LMPTP-A, increasing OMFP",enhanced potency in the presence of increasing substrate
same,clearance at 24 h,Mouse pharmacokinetics,69 mL/min/kg
Nc1ncn(Cc2ccccc2)c2ncnc1-2 [6a],"LMPTP potency, in words (Table 3 series)",human LMPTP-A [2],decreased potency
Nc1ncn(Cc2ccccc2Cl)c2ncnc1-2 [6b],"LMPTP potency, in words (Table 3 series)",human LMPTP-A [2],decreased potency
Nc1ncn(Cc2ccc(Cl)cc2Cl)c2ncnc1-2 [6c],"LMPTP potency, in words (Table 3 series)",human LMPTP-A [2],decreased potency
Nc1ncn(Cc2cccc(Cl)c2)c2ncnc1-2 [6d],"LMPTP potency, in words (Table 3 series)",human LMPTP-A [2],decreased potency
Nc1ncn(Cc2ccc(Cl)cc2)c2ncnc1-2 [6e],"LMPTP potency, in words (Table 3 series)",human LMPTP-A [2],decreased potency
Cc1cccc(C)c1Cn1cnc(N)c2ncnc1-2 [6f],fold loss in potency (LMPTP),"human LMPTP-A [2]; benzyl substituent off the 3-position, compared with 2,6-bisubstitution",10 fold
Nc1ncn(Cc2c(Cl)cncc2Cl)c2ncnc1-2 [6g],HepG2 AKT Thr308 phosphorylation after insulin stimulation,HepG2 hepatocytes,substantially increased
same,glucose tolerance (IPGTT),diabetic DIO mice; 0.03% in HFD chow (roughly 30 mg/kg/day),significantly improved
same,fasting insulin levels,diabetic DIO mice; 0.03% in HFD chow,decreased
same,insulin-stimulated phosphorylation of the IR activation motif in liver,diabetic DIO mice; [4],increased
same,phosphorylation of AKT Thr308 in liver,diabetic DIO mice; [4],increased
same,mechanism of LMPTP inhibition,human LMPTP-A [1],uncompetitive
same,clearance at 24 h,Mouse pharmacokinetics,18 mL/min/kg
Cc1ccccc1-c1nc2c(N)ncn(Cc3c(Cl)cncc3Cl)c-2n1 [6h],"LMPTP potency, in words (Table 3 series)",human LMPTP-A [2],additional boost in potency
same,clearance at 24 h,Mouse pharmacokinetics,103 mL/min/kg
Clc1cccc(Cl)c1Cn1cnc(=NCc2ccco2)c2[nH]cnc21 [compound 2],selectivity for LMPTP over VHR,VHR,high selectivity
same,selectivity for LMPTP over LYP,LYP,high selectivity
Nc1ncn(Cc2c(Cl)cccc2Cl)c2ncnc1-2 [compound 3],inhibition of other PTPs of the panel,[3],< 50%
same,fold more potent than 2 (LMPTP),human LMPTP-A [2]; compared with 2,> 10 fold
same,clearance at 24 h,Mouse pharmacokinetics,5.8 mL/min/kg

# Source: publication PMC8939909 (Journal of medicinal chemistry, 2021)
